Measurements from patent US20230031406A1, “COMPOUNDS AND COMPOSITIONS FOR TREATING CONDITIONS ASSOCIATED WITH NLRP ACTIVITY” (Novartis AG, priority 2018, published 2023).
Values belong to the molecule of their own block, whether it stands above or below them.

Assays:
[1] = test system: PMA-differentiated THP-1 cells; assay: hTHP-1 assay containing 10% fetal bovine serum (IL-1β production, Tables B5 and B6); assay type: cell-based, human
Procedure: The following protocol is suitable for testing the activity of the compounds disclosed herein. Procedure 1: IL-1β Production in PMA-Differentiated THP-1 Cells Stimulated with Gramicidin.
THP-1 cells were purchased from the American Type Culture Collection and sub-cultured according to instructions from the supplier. Cells were cultured in complete RPMI 1640 (containing 10% heat inactivated FBS, penicillin (100 units/ml) and streptomycin (100 μg/ml)), and maintained in log phase prior to experimental setup. Prior to the experiment, compounds were dissolved in dimethyl sulfoxide (DMSO) to generate a 30 mM stock. The compound stock was first pre-diluted in DMSO to 3, 0.34, 0.042 and 0.0083 mM intermediate concentrations and subsequently spotted using Echo550 liquid handler into an empty 384-well assay plate to achieve desired final concentration (e.g. 100, 33, 11, 3.7, 1.2, 0.41, 0.14, 0.046, 0.015, 0.0051, 0.0017 μM). DMSO was backfilled in the plate to achieve a final DMSO assay concentration of 0.37%. The plate was then sealed and stored at room temperature until required.
THP-1 cells were treated with PMA (Phorbol 12-myristate 13-acetate) (20 ng/ml) for 16-18 hours. On the day of the experiment the media was removed and adherent cells were detached with trypsin for 5 minutes. […] The cells were plated in the 384-well assay plate containing the spotted compounds at a density of 50,000 cells/well (final assay volume 50 μl). Cells were incubated with compounds for 1 hour and then stimulated with gramicidin (5 μM) (Enzo) for 2 hours. Plates were then centrifuged at 340 g for 5 min. Cell free supernatant (40 μL) was collected using a 96—CHannel PlateMaster (Gilson) and the production of IL-1β was evaluated by HTRF (cisbio). The plates were incubated for 18 h at 4° C. and read using the preset HTRF program (donor emission at 620 nm, acceptor emission at 668 nm) of the SpectraMax i3x spectrophotometer (Molecular Devices, software SoftMax 6). A vehicle only control and a dose titration of CRID3 (100-0.0017 μM) were run concurrently with each experiment.
Procedure 2: IL-1β Production in PMA-Differentiated THP-1 Cells Stimulated with Gramicidin.
THP-1 cells were purchased from the American Type Culture Collection and sub-cultured according to instructions from the supplier. Prior to experiments, cells were cultured in complete RPMI 1640 (containing 10% heat inactivated FBS, penicillin (100 units/ml) and streptomycin (100 μg/ml)), and maintained in log phase prior to experimental setup. Prior to the experiment THP-1 were treated with PMA (Phorbol 12-myristate 13-acetate) (20 ng/ml) for 16-18 hours. Compounds were dissolved in dimethyl sulfoxide (DMSO) to generate a 30mM stock. On the day of the experiment the media was removed and adherent cells were detached with trypsin for 5 minutes. […] The cells were plated in a 384-well plate at a density of 50,000 cells/well (final assay volume […]). Compounds were first dissolved in assay medium to obtain a 5× top concentration of 500 μM. 10 step dilutions (1:3) were then undertaken in assay medium containing 1.67% DMSO. 5× compound solutions were added to the culture medium to achieve desired final concentration (e.g. 100, 33, 11, 3.7, 1.2, 0.41, 0.14, 0.046, 0.015, 0.0051, 0.0017 μM). Final DMSO concentration was at 0.37%. Cells were incubated with compounds for 1 hour and then stimulated with gramicidin (5 μM) (Enzo) for 2 hours. Plates were then centrifuged at 340 g for 5 min. Cell free supernatant (40 μL) was collected using a 96—CHannel PlateMaster (Gilson) and the production of IL-1β was evaluated by HTRF (cisbio). A vehicle only control and a dose titration of CRID3 (100-0.0017 μM) were run concurrently with each experiment.
Tables B1, B2, B3, and B4 show the biological activity of compounds in hTHP-1 assay containing 2% fetal bovine serum. […] Key: <0.008 μM=“++++++”; ≥0.008 and <0.04 μM=“+++++”; >0.04 and <0.2 μM=“++++”; ≥0.2 and <1 μM=“+++”; ≥1 and <5 μM=“++”; ≥5 and <30 μM=“+”. […]

[2] = test system: PMA-differentiated THP-1 cells; assay: IL-1β production in PMA-differentiated THP-1 cells stimulated with gramicidin (hTHP-1 assay containing 2% fetal bovine serum; Procedures 1 and 2); assay type: cell-based, human; details: Homo sapiens, THP-1, Table B1; 2% fetal bovine serum; class symbols; read-out: Average IC50 of compounds in hTHP-1 assay: hTHP-1 IC50
Outline: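 Secreted IL-1β, read by HTRF, after gramicidin challenge (5 μM, 2 h) of THP-1 cells differentiated with PMA (20 ng/ml, 16-18 h) and plated at 50,000 cells/well in 2% FBS medium. Compounds, 0.0017-100 μM final with 0.37% DMSO, were added 1 h before stimulation.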

[3] = Homo sapiens, THP-1, read-out: hTHP-1 IC50 in 10% FBS, hTHP-1 assay containing 10% fetal bovine serum, Table B5
[4] = read-out: hTHP-1 IC50 in 10% FBS, hTHP-1 assay containing 10% fetal bovine serum, Table B6

Structure (SMILES): CC(C)(O)c1csc(S(N)(=O)=NC(=O)Nc2c3c(nc4c2CCC4)CCC3)c1F (stereo not shown) [Compound 1107, 3-Fluoro-N′-((1,2,3,5,6,7-hexahydrodicyclopenta [b,e]pyridin-8-yl)carbamoyl)-4-(2-hydroxypropan-2-yl)thiophene-2-sulfonimidamide]
- IC50 [1, 3]: 0.04 to 0.2 µM

Structure (SMILES): CC(C)(O)c1csc(S(N)(=O)=NC(=O)Nc2c3c(nc(C4CC4)c2C2CC2)CCC3)c1F (single isomer, unassigned) [Compound 1106a, (R) or (S)-N′-((2,3-dicyclopropyl-6,7-dihydro-5H-cyclopenta[b]pyridin-4-yl)carbamoyl)-3-fluoro-4-(2-hydroxypropan-2-yl)thiophene-2-sulfonimidamide]
- IC50 ([1]; read-out: hTHP-1 IC50 in 10% FBS, hTHP-1 assay containing 10% fetal bovine serum, Table B5, listed as 830): 0.04 to 0.2 µM

Structure (SMILES): Cc1nc2c(c(NC(=O)N=S(N)(=O)c3scc(C(C)(C)O)c3F)c1-c1ccccc1)CCC2 (single isomer, unassigned) [Compound 1110b, (R) or (S)-3-fluoro-4-(2-hydroxypropan-2-yl)-N′-((2-methyl-3-phenyl-6,7-dihydro-5H-cyclopenta[b]pyridin-4-yl)carbamoyl)thiophene-2-sulfonimidamide]
- IC50 ([1]; read-out: hTHP-1 IC50 in 10% FBS, hTHP-1 assay containing 10% fetal bovine serum, Table B5, listed as 845): < 0.008 µM

Structure (SMILES): Cc1c(C(F)(F)F)ncc(-c2ccnc(C#N)c2)c1NC(=O)N=S(N)(=O)c1sc(C(C)(C)O)nc1CO (stereo not shown) [Compound 812]
- IC50 [1, 3]: 0.04 to 0.2 µM

Structure (SMILES): C[C@@H]1CCc2c1nc1c(c2NC(=O)N=S(N)(=O)c2scc(C(C)(C)O)c2F)CCC1 (single isomer, unassigned) [Compound 1109b, (S) or (R)-3-fluoro-4-(2-hydroxypropan-2-yl)-N′-(((R)-3-methyl-1,2,3,5,6,7-hexahydrodicyclopenta [b,e]pyridin-8-yl)-carbamoyl) thiophene-2-sulfonimidamide]
- IC50 ([1]; read-out: hTHP-1 IC50 in 10% FBS, hTHP-1 assay containing 10% fetal bovine serum, Table B5, listed as 843): 0.2 to 1 µM

Structure (SMILES): C[C@@H](O)Cn1cc(F)c(S(N)(=O)=NC(=O)Nc2c3c(nc4c2CCC42CC2)CCC3)n1 (stereo partly drawn) [Compound 1119, 4-Fluoro-1-((R)-2-hydroxypropyl)-N′-((1′,5′,6′,7′-tetrahydro-2′H-spiro[cyclopropane-1,3′-dicyclopenta[b,e]pyridin]-8′-yl)carbamoyl)-1H-pyrazole-3-sulfonimidamide]
- IC50 [1, 3]: 0.008 to 0.04 µM

Structure (SMILES): CC1CCc2nc3c(c(NC(=O)N=S(N)(=O)c4cnc(C(C)(C)O)s4)c21)CCC3 (stereo not shown) [Compound 151, 2-(2-hydroxypropan-2-yl)-N′-((1-methyl-1,2,3,5,6,7-hexahydrodicyclopenta[b,e]pyridin-8-yl)carbamoyl)thiazole-5-sulfonimidamide]
- IC50 [2]: 0.2 to 1 µM

Results, then the molecule that gave them:

- IC50 [1, 4]: < 0.008 µM
Structure (SMILES): C[C@@H]1CCc2c1nc1c(c2NC(=O)N=S(N)(=O)c2nn(C3CC3)cc2F)CCC1 (single isomer, unassigned) [Example 867, (R) or (S)-1-cyclopropyl-4-fluoro-N′-(((R)-3-methyl-1,2,3,5,6,7-hexahydrodicyclopenta[b,e]pyridin-8-yl)carbamoyl)-1H-pyrazole-3-sulfonimidamide]

- IC50 [1, 4]: 0.04 to 0.2 µM
Structure (SMILES): NS(=O)(=NC(=O)Nc1c2c(nc3c1CCC3)CCC2)c1nn(C2CC2)cc1F (single isomer, unassigned) [Example 863, (R) or (S)-1-cyclopropyl-4-fluoro-N′-((1,2,3,5,6,7-hexahydrodicyclopenta[b,e]pyridin-8-yl)carbamoyl)-1H-pyrazole-3-sulfonimidamide]

- IC50 [1, 4]: 0.008 to 0.04 µM
Structure (SMILES): Cc1c(C(F)(F)F)nc2c(c1NC(=O)N=S(N)(=O)c1nn(C3CC3)cc1F)CCC2 (single isomer, unassigned) [Example 869, (R) or (S)-1-cyclopropyl-4-fluoro-N′-((3-methyl-2-(trifluoromethyl)-6,7-dihydro-5H-cyclopenta[b]pyridin-4-yl)carbamoyl)-1H-pyrazole-3-sulfonimidamide]

- IC50 [1, 3]: 0.04 to 0.2 µM
Structure (SMILES): CCn1cc(F)c(S(N)(=O)=NC(=O)Nc2c3c(nc(C)c2C(F)(F)F)CCC3)n1 (stereo not shown) [Compound 1012, 1-Ethyl-4-fluoro-N′-((2-methyl-3-(trifluoromethyl)-6,7-dihydro-5H-cyclopenta[b]pyridin-4-yl)carbamoyl)-1H-pyrazole-3-sulfonimidamide]

- IC50 ([1]; read-out: hTHP-1 IC50 in 10% FBS, hTHP-1 assay containing 10% fetal bovine serum, Table B5, listed as 824): 0.2 to 1 µM
Structure (SMILES): CCn1cc(F)c(S(N)(=O)=NC(=O)Nc2c(C)c(C(F)(F)F)nc3c2CC(C)C3)n1 (single isomer, unassigned) [Compound 1101d, (R, R) or (R, S)-N′-((3,6-dimethyl-2-(trifluoromethyl)-6,7-dihydro-5H-cyclopenta[b]pyridin-4-yl)carbamoyl)-1-ethyl-4-fluoro-1H-pyrazole-3-sulfonimidamide]

- IC50 [1, 3]: 0.04 to 0.2 µM
Structure (SMILES): CC(C)(O)c1csc(S(N)(=O)=NC(=O)Nc2c3c(nc(C(F)(F)F)c2C2CC2)CCC3)c1F (stereo not shown) [Compound 1105, N′-((3-cyclopropyl-2-(trifluoromethyl)-6,7-dihydro-5H-cyclopenta [b]pyridin-4-yl)carbamoyl)-3-fluoro-4-(2-hydroxypropan-2-yl) thiophene-2-sulfonimidamide]

- IC50 ([1]; read-out: hTHP-1 IC50 in 10% FBS, hTHP-1 assay containing 10% fetal bovine serum, Table B5, listed as 849): 1 to 5 µM
Structure (SMILES): CCn1cc(F)c(S(N)(=O)=NC(=O)Nc2c3c(nc(C)c2C(F)(F)F)CCC3)n1 (single isomer, unassigned) [Compound 1116b, (S) or (R)-1-ethyl-4-fluoro-N′-((2-methyl-3-(trifluoromethyl)-6,7-dihydro-5H-cyclopenta[b]pyridin-4-yl)carbamoyl)-1H-pyrazole-3-sulfonimidamide]

- IC50 ([1]; read-out: hTHP-1 IC50 in 10% FBS, hTHP-1 assay containing 10% fetal bovine serum, Table B5, listed as 829): 1 to 5 µM
Structure (SMILES): Cc1c(C(F)(F)F)nc2c(c1NC(=O)N=S(N)(=O)c1cnc(C(F)F)s1)CCC2 (single isomer, unassigned) [Compound 1007a, (R) or (S)-2-(Difluoromethyl)-N′-((3-methyl-2-(trifluoromethyl)-6,7-dihydro-5H-cyclopenta[b]pyridin-4-yl)carbamoyl)thiazole-5-sulfonimidamide]

- IC50 ([1]; read-out: hTHP-1 IC50 in 10% FBS, hTHP-1 assay containing 10% fetal bovine serum, Table B5, listed as 837): 0.008 to 0.04 µM
Structure (SMILES): CCn1cc(F)c(S(N)(=O)=NC(=O)Nc2c3c(nc(C(F)(F)F)c2-c2ccc(F)c(F)c2)CCC3)n1 (single isomer, unassigned) [Compound 1113b, (R) or (S)-N′-((3-(3,4-difluorophenyl)-2-(trifluoromethyl)-6,7-dihydro-5H-cyclopenta[b]pyridin-4-yl)carbamoyl)-1-ethyl-4-fluoro-1H-pyrazole-3-sulfonimidamide]
